Reference: article PMC5636120, “Biochemical characterization of recombinant influenza A polymerase heterotrimer complex: Polymerase activity and mechanisms of action of nucleotide analogs” (PLoS ONE, 2017)
Values joined by “and” are separate entries in the source; they are usually repeats but may differ in a detail not shown here. Identical values can stand only once. Like-named read-outs stand apart in the source and are kept apart here.

Legend:
[1] = tested on: influenza A (A/Hong Kong/8/68); assay: Antiviral activity (virus-induced cytopathic effect, CellTiterGlo) in infected MDCK cells; assay type: cell-based, Influenza A virus A/Hong Kong/8/68; conditions: for EC50: MDCK cells infected with Influenza A/HK/68, MOI 0.005, five day incubation, nucleoside form
Description: MDCK cells were seeded in 96-well plates at a density of 1 × 10^4 cells per well in 100 μL of MEM medium supplemented with 10% FBS. Medium was removed the next day and the cells were washed twice with 100 μL MEM medium supplemented with 0.125% (w/v) BSA (MEM-BSA). Serially diluted compounds were added to cells in 150 μL MEM-BSA and cells were infected with influenza A (A/Hong Kong/8/68, Advanced Biotechnologies Inc.) at MOI 0.005 in 50 μL of MEM-BSA medium supplemented with 8 μg/mL trypsin (Worthington, Lakewood, NJ). After five day incubation at 37°C, virus-induced cytopathic effect was determined by adding CellTiterGlo viability reagents (Promega, Madison, WI) and the luminescence signal was measured using Perkin Elmer’s Envision MultiLabel plate reader (Santa Clara, CA). The cytotoxicity of compounds in MDCK cells was determined in replicate plates with the same setup as used in the antiviral assay, except no virus was added to the cell culture. EC50 and CC50 values were calculated by non-linear regression analysis using GraphPad Prism (La Jolla, CA) and four parameter logistic sigmoidal dose-response (variable slope) equations.

[2] = in vitro; conditions: dog
[3] = target: concentrated cRNP with endogenous viral template (Influenza A virus, UniProt P03431); conditions: 500 μM natural NTPs and/or analogs, 60 minutes
[4] = target: recombinant influenza polymerase trimer (RdRp) (Influenza A virus, UniProt P03431); assay: Mechanism of action, gel-based incorporation assay with miniHA template and capped 33P-m7G167 primer; assay type: biochemical, Influenza A virus H1N1 strain A/PR/8; conditions: 500 μM analog in place of GTP, 500 μM each CTP, UTP, ATP, miniHA template
Description: (§1) The PA, PB1 and PB2 genes of Influenza A virus RNA polymerase were amplified by reverse-transcription and PCR from H1N1 strain A/PR/8. The 3x FLAG tag was added to the N-terminal full-length PA and cloned into pFastBac1 vector (Life Technologies, Carlsbad, CA). Full-length PB1 and PB2 genes were cloned into pFastBac Dual vector (Life Technologies) as described previously. Recombinant baculovirus was generated for PA and PB1/PB2 using Sf9 cells and was used to co-infect Trichopulsia ni cells (Hi5) at 1.5 x 10^6 cells/ml in ESF-921 medium (Expression Systems, David, CA). Purification and biochemical characterization of the polymerase heterotrimer was described previously. The purified polymerase complex was stored at -80°C prior use.
Recombinant influenza polymerase trimer (80 ng/μL) was incubated with 595 nM ^33P-m^7G^167 and 1.6 μM miniHA template in buffer containing 50 mM HEPES (pH 7.8), 2 mM DTT, 5 mM magnesium acetate, 0.2 U/mL RNasin for 60 minutes at 37°C. After the endonuclease cleavage of ^33P-m^7G^167 was completed, 20 μM of endonuclease inhibitor 4-(1,4-bis(4-chlorobenzyl)piperidin-4-yl)-2,4-dioxobutanoic acid was added to the reaction mixture. The polymerase reactions were initiated by adding nucleotide analogs and three other natural NTPs (all at final concentrations of 500 μM) and 10 μCi α-^33P-ATP. Reactions were incubated at 37°C for 30 minutes and quenched with equal volumes of gel loading dye containing 90% formamide, 100 mM EDTA, 0.1% (w/v) bromphenol blue and xylene cyanol. Reactions were analyzed by electrophoresis (25% polyacrylamide, 8 M urea). The dried gels were exposed to phosphorimager screen and visualized using the Typhoon Trio and ImageQuant Software (GE, Piscataway, NJ.)

[5] = target: T1, recombinant influenza RdRp (PA/PB1/PB2 heterotrimer) (Influenza A virus, UniProt P03431); assay: Apparent binding affinity (Kapp), single nucleotide incorporation; assay type: biochemical, Influenza A virus H1N1 strain A/PR/8; conditions: for Kapp: SNI-G template, ApG primer, 37°C, 35 minutes, concentration converting half of 9-mer to 10-14-mer; for Selectivity factor, Kapp(analog):Kapp(GTP): natural GTP over analog
Description: as §1
The apparent binding affinity Kapp was determined for GTP and T-1106-TP as described by Jin et al. 250 nM recombinant polymerase trimer was pre-incubated with 2.5 μM SNI-G template, 1 μM SNI-Pro promoter, and 400 μM ApG primer in a buffer containing 40 mM Tris-HCl (pH 7.0), 20 mM NaCl, 5 mM MgCl2, 2 mM DTT, and 0.2 U/μL RNasin at 37°C. The reaction was initiated by adding a mixture of 25 μM CTP, 25 μM UTP, 25 μCi of α-^33P-UTP, and various concentrations of GTP or analogs. Reactions proceeded for 35 minutes and were quenched with equal volumes of loading dye containing 90% formamide, 100 mM EDTA, 0.1% (w/v) amount of bromphenol blue and xylene cyanol. The products were separated by 25% PAGE, visualized, and quantified by autoradiography as described above. Data were fit with Eq I, where %Max and %Min are respectively the ratios of (10+11+12+13+14-mer)/ (9+10+11+12+13+14-mer) at the highest nucleotide concentration and the baseline level of mis-incorporation of CTP/UTP in the absence of the correct nucleotide (GTP) encoded by the template sequence, Kapp is the concentration at which half of the reactant (9-mer) is converted to products (10+11+12+13+14-mers), and S is the concentration of nucleotide analog.
Y=(%Max−%Min)⋅S/Kapp+S+%Min (I)

[6] = target: T1, recombinant influenza RdRp (PA/PB1/PB2 heterotrimer); set-up: method as in PMID 23874596; conditions: cited from earlier work
[7] = target: viral ribonucleoprotein complexes from detergent-disrupted Influenza A/PR/8/34 (Influenza A virus, UniProt P03431); assay: Influenza polymerase inhibition (IC50) filter binding assay, ApG-primed RNA synthesis by cRNP; conditions: vs T-705-RTP
[8] = Influenza A virus, MDCK, 120 h, read-out: EC50

For Nc1nc2c(ncn2[C@@H]2O[C@H](CO)[C@@H](O)[C@H]2F)c(=O)[nH]1 [2’FdG, 2’-deoxy, 2’F guanosine], the EC50 ([1]; Influenza A virus, MDCK, 120 h) was 18 µM, the EC50 ([1]; read-out: EC50) was 19 ± 5 µM and the CC50 at 5 day [2] was greater than 200 µM.
In the case of Nc1nc2c(ncn2[C@@H]2O[C@H](COP(=O)(O)OP(=O)(O)OP(=O)(O)O)[C@@H](O)[C@H]2F)c(=O)[nH]1 [2’FdGTP], the “Incorporation / mode of action in cRNP reactions” value (“Incorporation / mode of action” below) [3] is reported as “stable incorporation” and the “Mode of action on RNA synthesis” value [4] is reported as “stably incorporated into RNA”.
In the case of N#CC1(COP(=O)(O)OP(=O)(O)OP(=O)(O)O)OC(n2cnc3c(=O)[nH]c(N)nc32)C(F)C1O (stereo not drawn) [4’CN-FdGTP], the “Mode of action on RNA synthesis” value [4] is reported as “direct chain-termination”.
Work on N#C[C@]1(CO)O[C@@H](n2cnc3c(=O)[nH]c(N)nc32)[C@H](F)[C@@H]1O [4’CN-FdG] yielded an EC50 [1, 8] greater than 200 µM and a CC50 at 5 day [2] greater than 200 µM.
In the case of C=C[C@]1(COP(=O)(O)OP(=O)(O)OP(=O)(O)O)O[C@@H](n2cnc3c(=O)[nH]c(N)nc32)[C@H](F)[C@@H]1O [4’vinyl-FdGTP], the “Mode of action on RNA synthesis” value [4] is reported as “direct chain-termination”, the Kapp [5] is reported as 29 µM and the Kapp ([5]; listed as 4'vinyl-FdGTP) is reported as 29.1 µM. The “Selectivity factor, Kapp(analog):Kapp(GTP)” value [5] was 3096.
For C=C[C@]1(CO)O[C@@H](n2cnc3c(=O)[nH]c(N)nc32)[C@H](F)[C@@H]1O [4’vinyl-FdG], the EC50 ([1]; Influenza A virus, MDCK, 120 h) was 110 µM, the EC50 ([1]; read-out: EC50) was 116 ± 48 µM and the CC50 at 5 day [2] was greater than 200 µM.
In the case of Nc1nc2c(ncn2[C@@H]2O[C@H](COP(=O)(O)OP(=O)(O)OP(=O)(O)O)[C@@H](O)[C@H]2O)c(=O)[nH]1 [GTP], the “Kapp, reported value” [6] is listed as 8 nM and the “Selectivity factor, Kapp(analog):Kapp(GTP)” value [5] is listed as 1.
For NC(=O)c1nc(F)cn([C@@H]2O[C@H](COP(=O)(O)OP(=O)(O)OP(=O)(O)O)[C@@H](O)[C@H]2O)c1=O [T-705-RTP], the “Incorporation / mode of action” value [3] was “neither incorporation” and the “Mode of action on RNA synthesis” value [4] was “delayed chain-termination”.
For NC(=O)c1nc(F)c[nH]c1=O [T-705], the EC50 ([1]; Influenza A virus, MDCK, 120 h) was 2.2 µM, the EC50 ([1]; read-out: EC50) was 2.4 ± 1.1 µM and the CC50 [2] was greater than 100 µM.
In the case of NC(=O)c1nccn([C@@H]2O[C@H](COP(=O)(O)OP(=O)(O)OP(=O)(O)O)[C@@H](O)[C@H]2O)c1=O [T-1106-TP], the “Incorporation / mode of action” value [3] is reported as “incorporation and chain termination”, the “Fold less potent than T-705 in the antiviral assays” value ([1]; vs T-705, MDCK cells) is reported as 12 and the “Mode of action on RNA synthesis” value [4] is reported as “delayed chain termination”. The “Fold more potent (lower enzymatic IC50) than T-705-RTP in the biochemical assay” value [7] was 3, the “Times lower selectivity factor than the reported selectivity over T-705-TP” value ([5]; compared with reported selectivity) was 6.3 and the “Selectivity factor, Kapp(analog):Kapp(GTP)” value [5] was 3 and 2.9.
With NC(=O)c1nccn([C@@H]2O[C@H](CO)[C@@H](O)[C@H]2O)c1=O [T-1106] the EC50 [1, 8] was 27 ± 6 µM and the CC50 at 5 day [2] was greater than 100 µM.
